Structures are written as SMILES.

For assay [1], the system named is patient suffering from alcohol dependence. Description: Treatment of alcohol abuse in a patient with alcohol dependence. The format is in vivo. As to conditions: person; 5 mg per day via nasal spray; within one month; patient report. Here is the method:
The patient is a person suffering from alcohol dependence and complaining of symptoms including abdominal pain, confusion, nausea and vomiting, neglecting to eat, and shaking in the morning. The patient is prescribed granisetron 5 mg per day taken via nasal spray.

In assay [2] the test system is patient with panic disorder. Description: Treatment of panic disorder in a patient with a 5-HT3 receptor antagonist. The format is in vivo. As to conditions: patient previously treated largely unsuccessfully with SSRIs, MAOIs, tricyclic antidepressants, benzodiazepines; 8 mg/day to 30 mg/day for 5 to 60 days. Here is the method:
A patient presents with symptoms including rapid heartbeat, perspiration, dizziness, dyspnea, trembling, uncontrollable fear, and hyperventilation, indicative of panic disorder. The patient has previously been treated, largely unsuccessfully, with selective serotonin reuptake inhibitors (SSRIs), monoamine oxidase inhibitors (MAOIs), tricyclic antidepressants, and benzodiazepines. The patient is treated for 5 to 60 days sequentially with ondansetron administered at a dose of 8 mg/day to 30 mg/day.

With `CN1C2CCCC1CC(NC(=O)c1nn(C)c3ccccc13)C2` (stereo not drawn) [granisetron], in assay [1], the control over drinking entry is given as “able to exert control over their drinking”; the “improvement of symptoms (abdominal pain, confusion, nausea and vomiting, neglecting to eat, shaking in the morning)” value is on record as “all of the above symptoms have improved considerably”.
Consider `Cc1nccn1CC1CCc2c(c3ccccc3n2C)C1=O` (stereo not drawn) [ondansetron, 1,2,3,9-tetrahydro-9-methyl-3-[(2-methyl-1H-imidazol-1-yl]methyl]-4H-carbazol-4-one], for which the “amelioration of panic disorder (severity and frequency of panic attacks and their symptoms)” value in assay [2] was “long-lasting amelioration of panic disorder”.

The record behind these values is patent publication US20110288115A1, “TREATMENT OF VAGALLY-MEDIATED SPECTRUM DISORDERS” (AVMEDIS LLC, priority 2010, published 2011).
